These results are taken from patent publication US10864273B2, “Thiobase compounds for photodynamic therapy” (CASE WESTERN RESERVE UNIVERSITY, priority 2015, dated 2020).

Entries after “also recorded” stand apart in the source; their conditions may differ.

Data set [1] in a line: Steady-state molar absorptivity spectra, thiouracil series. In kind it is physicochemical. To be noted: 380 to 400 nm; based on molar absorptivity spectra. The method, then:
Steady-state absorption spectra were measured using a Cary 100 Bio spectrometer. All absorption spectra were background corrected by subtracting the absorption of the neat solvent. Molar absorptivity coefficients were determined from the absorption spectra of serial dilutions of stock solutions with known concentrations.
An important property in the characterization of the photosensitizing potential of the thiouracil series is the determination of their ground-state molar absorptivity spectra. […] The maximum of the lowest-energy absorption band is shifted considerably further to the red (60 nm, 6734 cm^−1) upon sulfur substitution of the oxygen atom at the C4 position compared to when the substitution is made at the C2 position. […] In fact, based on the molar absorptivity spectra, the absorption efficiency of 2,4dtUra at nearvisible wavelengths (380 to 400 nm) is about 27-fold greater than that of 4tUra (see ESI† for details). The ability of these thiouracil derivatives to absorb longer wavelengths of light than uracil facilitates their selective excitation over the canonical DNA and RNA nucleobases. This photophysical property is essential for their prospective use in in vitro and in vivo photosensitizing applications.

Data set [2] concerns adenosine 5′-monophosphate (5′-AMP). Nature of the data set: Photoreactivity with adenosine 5′-monophosphate upon 365 nm irradiation in N2-saturated buffer. How it is done: Aqueous phosphate-buffered saline solutions, pH 7.4, containing either 4tUra or 2,4dtUra were prepared with and without 5′-AMP and loaded into 1×1 cm septum-top quartz cuvettes. The concentrations of the thiouracil derivatives and 5′-AMP were […], respectively. These concentrations were chosen in order to favor the bimolecular photoreaction between the thiouracil derivative and 50-AMP, while simultaneously maintaining the absorbance of the solutions within the linear dynamic range limit of the UV-visible spectrophotometer used. All solutions were purged with ultrapure nitrogen for 30 min and kept under constant nitrogen flow throughout the irradiation period. An optical parametric amplifier (TOPAS, Quantronix/Light Conversion) pumped by our Libra laser system (described above) was used for monochromatic (±1 nm) irradiation of the samples. […] Absorbance changes in the thiouracil solutions, with and without 5′-AMP, were monitored periodically using UV-visible spectroscopy (Cary 100 Bio) during irradiation at 365 nm for up to 90 min and while stored in the dark for up to three and a half days.
In order to scrutinize the light-induced reactivity of these sensitizers toward biomolecules, aqueous phosphate-buffered saline solutions of either 4tUra or 2,4dtUra were prepared in the presence of the RNA monomer adenosine 5′-monophosphate (5′-AMP) at a 1:5 molar ratio. […] The experimental conditions were chosen in order to facilitate the extraction of relative photoreaction rates from the changes in the steady-state absorption spectra with irradiation time. […]

Data set [3] is described as follows: Singlet oxygen quantum yield by phosphorescence at 1270 nm, thiouracil series. Type of data set: physicochemical. The method, then:
Solutions of 4tUra, 2,4dtUra, and the singlet oxygen standard (phenalenone; ΦΔ=0.98) were prepared in acetonitrile, each with an absorbance of 0.3 at 355 nm in a 1×1 cm quartz cuvette. The solutions were purged with oxygen for 30 min, followed by the determination of quantum yields from back-toback measurements of the singlet oxygen phosphorescence intensity at 1270 nm. The O2-saturated solutions were excited at 355 nm (Spectra Physics GCR-150-30: 7 ns pulse width) and the phosphorescence at 1270 nm was detected with a NIR sensitive photomultiplier tube (H10330A-45, Hamamatsu).
The singlet oxygen (^1O2) quantum yields of 4tUra and 2,4dtUra were measured by monitoring the characteristic phosphorescence of ^1O2 at 1270 nm with nanosecond time resolution.

Data set [4] in a line: Femtosecond to microsecond transient absorption spectroscopy of the thiouracil series (intersystem crossing, triplet yield, triplet decay, triplet-triplet extinction).
Text: Briefly, 800 nm, 100 fs fundamental pulses were generated with a Ti-Sapphire regenerative amplifier laser system (Libra-HE, Coherent, Inc.: 4.0 W, 1 kHz). The fundamental beam was used to produce pump wavelengths of 320, 335, and 350 nm via an optical parametric amplifier (TOPAS, Quantronix/Light Conversion). Unwanted wavelengths were removed from the pump beam using a reflective wavelength filter and a Glan-Taylor polarizer. A fraction of the remaining fundamental beam was focused into a continuously moving CaF2 plate (2 mm thick) to generate broadband white light probe pulses (320-700 nm). The intensity of the excitation beam was attenuated to 1 mJ per pulse at the sample position. The polarization of the pump beam was randomized before being focused into the sample to overlap with the white light continuum probe at a 3:1 beam diameter ratio. Pump-probe experiments were collected using a Helios spectrometer (Ultrafast Systems, LLC) and a home-made data acquisition software (LabView, National Instruments, Inc.).
Solutions of the 2tUra, 4tUra, and 2,4dtUra derivatives were prepared in aqueous phosphate-buffered saline at pH 7.4. […] Solutions were investigated in 2 mm optical path length quartz cells and the irradiated volume was continuously refreshed by stirring with a Teflon-coated magnetic stir bar. Contributions to the transient data from any putative photoproduct formation were prevented by replacing the solution with fresh stock solution every 5 scans, or before 6% sample degradation (as monitored by a decrease in the steady-state absorbance of the lowest-energy absorption band). The UVA excitation wavelength used was varied depending on the absorption spectrum of the specific thiouracil derivative investigated. For 2tUra, an excitation wavelength of 320 nm was used, whereas 2,4dtUra was excited at 335 and 350 nm, and 4tUra was excited at all three of these UVA wavelengths.
Decay of the triplet state of 4tUra and 2,4dtUra to the ground state was monitored using the same excitation and detection setups but probing with an electronically triggered broadband white light source (Eos, Ultrafast Systems, LLC) that has been conveniently integrated into the Helios spectrometer. This probe source has a spectral window from B375 to 800 nm, a time resolution of about 400 ps, and a temporal window of up to 120 ms. […] Data were collected with the solutions under a constant nitrogen flow, and exciting at 350 nm with 3 mJ per pulse for 10 min, corresponding to less than 5% degradation.
For each data set, between 50 and 100 traces were selected across the entire range of probe wavelengths and globally analyzed in Igor Pro 6.32A (WaveMetrics, Inc.). […] 83 The uncertainties reported for the triplet population lifetimes are twice the standard deviation from the average fitting of at least three independent datasets (i.e., recorded on three different days). Triplet-triplet absorption spectra were extracted from the global fitting analysis.
The nature of data set [5]: Estimated photosensitization depth into tissue from molar absorptivity cutoff and penetration depth of light. The source says: FIG. 13 illustrates a plot showing molar absorptivity spectra of 4tUra and 2,4dtUra overlaid with the function of the wavelength-dependent penetration depth of light into unpigmented tissue. The ε cutoff is defined by the molar absorptivity of 4tUra at 365 nm; the excitation wavelength typically used in its photosensitization applications.
Importantly, many of the current applications employing 4tUra and other UVA photosensitizers (e.g. psoralen derivatives) use radiation at 365 nm as the excitation source. The use of longer UVA wavelengths reduces direct excitation of other biomolecules, thereby increasing photosensitization efficiency and minimizing unwanted side reactions. However, the requirement of using relatively high concentrations of the sensitizer and/or long irradiation times are two major drawbacks in the current use of 4tUra in photocrosslinking studies as well as in PUVA (psoralen+UVA) photochemotherapies. […] More importantly, 2,4dtUra enables the use of lower-energy excitation wavelengths, as long as 395 nm (see FIG. 13), considering a molar absorptivity cutoff criterion equal to that currently used for 4tUra (see ESI† for a more thorough justification of this cutoff criterion). In other words, the use of 2,4dtUra enables excitation at 395 nm while maintaining the same absorption efficiency and photoreactivity as that of 4tUra at 365 nm. […]

For data set [6] the following is noted: cited from earlier work.

In the case of `Sc1ccnc(S)n1` [2,4dtUra, 2,4-dithiouracil], in data set [1], the “absorption efficiency at near-visible wavelengths relative to 4tUra” value is given as “about 27 fold”. Further, the “photoreaction rate with 5′-AMP relative to 4tUra” value in data set [2] (365 nm, same concentrations of reactants) is “approximately three times faster; also recorded: threefold greater; also recorded: threefold higher”. Moreover, the photoreaction rate entry in data set [2] (with 5′-AMP, 1:5 molar ratio (24 and 120 mM), 365 nm irradiation, N2-saturated aqueous buffer pH 7.4) is on record as “(1.2±0.2)×10^−9 M s^−1”. The “ΦΔ singlet oxygen quantum yield” value in data set [3] (O2-saturated acetonitrile, 355 nm excitation, phenalenone standard) is 0.49±0.02. Besides, in data set [3] (excited to lowest-energy absorption band), the “1O2 yield relative to uracil” value is 3.3 fold. In data set [3] (following UVA excitation), the 1O2 yield result is on record as “ca. 50%”. Besides, the “increase in rate of intersystem crossing going from 2tUra” value in data set [4] is 1.6 fold. Besides, the “τISC intersystem crossing lifetime” value in data set [4] (aqueous phosphate-buffered saline solution, pH 7.4) came to 220±40 fs. Moreover, the “κT triplet-state decay rate” value in data set [4] (aqueous phosphate-buffered saline solution, pH 7.4, 24 mM solutions, nitrogen-purged, 350 nm excitation) is 4.3 ± 0.9 10^6 s^−1. In data set [4] (aqueous phosphate-buffered saline, pH 5.4), the intersystem crossing lifetime is listed as 210±50 fs. In data set [4] (at 600 nm, singlet depletion method), this compound came in with a triplet-triplet extinction coefficient of 2500 ± 600 M⁻¹ cm⁻¹. Also, the “longest excitation wavelength at molar absorptivity cutoff equal to that of 4tUra at 365 nm” value in data set [5] is at most 395 nm. In data set [6], the pKa was 7.4.

For orientation: pKa means the pH at which an ionisable group is half protonated.
